Results taken from ChEMBL document CHEMBL4177569, “Design, synthesis and preliminary antiproliferative activity studies of new diheteroaryl thioether derivatives” (Bioorg Med Chem Lett, 2017).

Tests used:
Assay type in all cases: functional, cell-based
[1] = test system: MGC-803; assay: Antiproliferative activity against human MGC803 cells after 48 hrs by MTT assay; conditions: MGC-803, 48 h
[2] = test system: MKN-45; assay: Antiproliferative activity against human MKN45 cells after 48 hrs by MTT assay; conditions: MKN-45, 48 h
[3] = test system: ECa-109 cell line; assay: Antiproliferative activity against human EC109 cells after 48 hrs by MTT assay; conditions: ECa-109, 48 h
[4] = test system: NCI-H1650; assay: Antiproliferative activity against human NCI-H1650 cells after 48 hrs by MTT assay; conditions: NCI-H1650, 48 h

O=c1[nH]cc(F)c(=O)[nH]1 [FLUOROURACIL]
IC50 [1]: 7.52 µM
IC50 [2]: 8.89 µM
IC50 [3]: 6.21 µM
IC50 [4]: 14.2 µM
